Laboratory results from the supplement of paper PMC11208160.

Test: recombinant barcode read abundance after kanamycin selection (control-corrected) (log10(CPM+1)); higher = more efficient recombination; sequences stand for … in AGTGCAGAGAAAATCGGCCAGTTTTCTCTGCCTGCAGTCCGCATGCCGT…AGATTTATGCAGCGGACTGCCTTTCTCCCAAAGTGATAAACCGGACAGTATCATGGACCGGTTTTCCCGGTAATCCGTATTTGCAAGGTTGGTTTCACT; site = the 11-nt target
In short: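 Targets were screened in pooled form in E. coli against IS621 bridge RNA target-binding loops. Recombination efficiency is based on barcode counts at recombinant junctions in counts per million, averaged and corrected for the control. Numbers are shown as log10(CPM+1), with duplicate plates on chloramphenicol/ampicillin LB agar (control) or chloramphenicol/ampicillin/kanamycin with 0.1 mM IPTG.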
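Note: IS621 recombinase and bridge RNA in Escherichia coli cells.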

Row | Sequence | recombinant barcode read abundance (log10)
1 | CAAGATGCTTGGGTTCTAACCTGTTGCCT (site CACGATGCTAG) | 0.304
2 | CAAGATGCTTGGGTTCTAACCTGTTGCCT (site CAGGATGCTAG) | 0.222
3 | CAAGATGCTTGGGTTCTAACCTGTTGCCT (site CATGATGCTAG) | 0.366
4 | CAAGATTCTTGGGTTCTAACCTGTTGCCT (site CAAGATTCTAG) | 1.69
5 | CAAGATTCTTGGGTTCTAACCTGTTGCCT (site CCAGATTCTAG) | 0.71
6 | CAAGATTCTTGGGTTCTAACCTGTTGCCT (site CGAGATTCTAG) | 0
7 | CAAGATTCTTGGGTTCTAACCTGTTGCCT (site CTAGATTCTAG) | 0.6
8 | CAAGTGACTTGGGTTCTAACCTGTTGCCT (site CAAGTGACTAG) | 1.68
9 | CAAGTGACTTGGGTTCTAACCTGTTGCCT (site TCCTATGCTTA) | 0.129
10 | CAAGTGCCTTGGGTTCTAACCTGTTGCCT (site CAAGTGCCTAG) | 2.01
11 | CAAGTGCCTTGGGTTCTAACCTGTTGCCT (site CAAGTTCCTAG) | 0.064
12 | CAAGTTCCTTGGGTTCTAACCTGTTGCCT (site CAAGTGCCTAG) | 0.62
13 | CAAGTTCCTTGGGTTCTAACCTGTTGCCT (site CAAGTTCCTAG) | 1.03
14 | CAATACACTTGGGTTCTAACCTGTTGCCT (site CAATACACTAG) | 2.34
15 | CAATACACTTGGGTTCTAACCTGTTGCCT (site CCACACACTAG) | 0.0608
16 | CAATCGTCTTGGGTTCTAACCTGTTGCTT (site CAATCGTCTAA) | 0.629
17 | CAATCGTCTTGGGTTCTAACCTGTTGCTT (site GAATCTTCTAA) | 0.0659
18 | CAATCTGCTTGGGTTCTAACCTGTTGCCT (site CAATCTGCTAG) | 0.233
19 | CAATCTGCTTGGGTTCTAACCTGTTGCCT (site CACTCTGCTAG) | 0.0111
20 | CAATCTGCTTGGGTTCTAACCTGTTGCCT (site CAGTCTGCTAG) | 0.101
21 | CAATCTGCTTGGGTTCTAACCTGTTGCCT (site CATTCTGCTAG) | 0.0288
22 | CAATGCTCTTGGGTTCTAACCTGTTGCCT (site CAATGCTCTAG) | 1.84

Row | Sequence | recombinant barcode read abundance (log10)
23 | CAATGCTCTTGGGTTCTAACCTGTTGCCT (site CAGTGCTCTTG) | 0.113
24 | CAATGGACTTGGGTTCTAACCTGTTGCCT (site CAATGGACTAG) | 1.12
25 | CAATGGACTTGGGTTCTAACCTGTTGCCT (site CACTGGACTAG) | 0.0334
26 | CAATGGACTTGGGTTCTAACCTGTTGCCT (site CAGTGGACTAG) | 0.106
27 | CAATGGACTTGGGTTCTAACCTGTTGCCT (site CATTGGACTAG) | 0.103
28 | CAATGGTCTTGGGTTCTAACCTGTTGCTT (site CAATGGTCTAA) | 1.86
29 | CAATGGTCTTGGGTTCTAACCTGTTGCTT (site CAATGGTCTAC) | 1.64
30 | CAATGGTCTTGGGTTCTAACCTGTTGCTT (site CAATGGTCTAG) | 1.07
31 | CAATGGTCTTGGGTTCTAACCTGTTGCTT (site CAATGGTCTAT) | 1.14
32 | CAATTTCCTTGGGTTCTAACCTGTTGCAT (site CAATTTCCTAT) | 0.322
33 | CAATTTCCTTGGGTTCTAACCTGTTGCAT (site GCCAGCTCTCA) | 0.0829
34 | CACACGACTTGGGTTCTAACCTGTTGCTT (site CACACGACTAA) | 0.496
35 | CACACGACTTGGGTTCTAACCTGTTGCTT (site TGGTTACCTCC) | 0.0367
36 | CACACGCCTTGGGTTCTAACCTGTTGCCT (site CACACGCCTAG) | 0.278
37 | CACACGCCTTGGGTTCTAACCTGTTGCCT (site CTCACGCCTAA) | 0.0913
38 | CACATATCTTGGGTTCTAACCTGTTGCAT (site CACATATCTAT) | 1.49
39 | CACATATCTTGGGTTCTAACCTGTTGCAT (site CACATCTCTAG) | 0.123
40 | CACCAATCTTGGGTTCTAACCTGTTGCCT (site CACCAATCTAG) | 0.525
41 | CACCAATCTTGGGTTCTAACCTGTTGCCT (site CACGCATCTAG) | 0.269
42 | CACCAGCCTTGGGTTCTAACCTGTTGCAT (site AGGTCCGCTTA) | 0.167
43 | CACCAGCCTTGGGTTCTAACCTGTTGCAT (site CACCAGCCTAT) | 1.98
44 | CACCCCTCTTGGGTTCTAACCTGTTGCCG (site ATGAGGACTAC) | 0.0851

Row | Sequence | recombinant barcode read abundance (log10)
45 | CACCCCTCTTGGGTTCTAACCTGTTGCCG (site CACCCCTCTCG) | 2.44
46 | CACCGTCCTTGGGTTCTAACCTGTTGCAT (site CACCGTCCTAC) | 0.0846
47 | CACCGTCCTTGGGTTCTAACCTGTTGCAT (site CACCGTCCTAT) | 1.61
48 | CACCTGTCTTGGGTTCTAACCTGTTGCCG (site CACCTGACTCG) | 0.151
49 | CACCTGTCTTGGGTTCTAACCTGTTGCCG (site CACCTGTCTCG) | 1.94
50 | CACGCGTCTTGGGTTCTAACCTGTTGCTG (site CACGCGTCTCA) | 0.746
51 | CACGCGTCTTGGGTTCTAACCTGTTGCTG (site CACGCTTCTTA) | 0.0288
52 | CACGCTCCTTGGGTTCTAACCTGTTGCGT (site ACTTGAGCTCT) | 0.119
53 | CACGCTCCTTGGGTTCTAACCTGTTGCGT (site CACGCTCCTAC) | 0.656
54 | CACGGGTCTTGGGTTCTAACCTGTTGCTT (site CACGGGTCTAA) | 2.32
55 | CACGGGTCTTGGGTTCTAACCTGTTGCTT (site CTCCGGTCTAA) | 0.209
56 | CACTACCCTTGGGTTCTAACCTGTTGCTT (site AGGCCGTCTCC) | 0.0811
57 | CACTACCCTTGGGTTCTAACCTGTTGCTT (site CACTACCCTAA) | 1.24
58 | CACTATCCTTGGGTTCTAACCTGTTGCGG (site CACTAGCCTCC) | 0.0909
59 | CACTATCCTTGGGTTCTAACCTGTTGCGG (site CACTATCCTCC) | 1.5
60 | CACTCACCTTGGGTTCTAACCTGTTGCGG (site CACTCACCTCC) | 1.38
61 | CACTCACCTTGGGTTCTAACCTGTTGCGG (site CACTTAGCTCC) | 0.0338
62 | CACTCTCCTTGGGTTCTAACCTGTTGCCT (site CACTCTCCTAG) | 0.226
63 | CACTCTCCTTGGGTTCTAACCTGTTGCCT (site CACTCTCCTAT) | 0.00896
64 | CACTTAGCTTGGGTTCTAACCTGTTGCGG (site CACTCACCTCC) | 0.0176
65 | CACTTAGCTTGGGTTCTAACCTGTTGCGG (site CACTTAGCTCC) | 1.28
66 | CACTTCCCTTGGGTTCTAACCTGTTGCCT (site CACTTCCCTAA) | 0.191
